Where a name gives a salt, the structure may show the parent alone.
Legend:
[1] = system: Hex and Islet-1 (Isl1) gene expression; experiment: In situ hybridization of Hex and Isl1 in avian heart fields after Li, HCy or Wnt3A with or without FA; format: in vivo, chick
Procedure: In situ hybridizations on control and experimentally manipulated chick embryos were carried out using digoxigenin-labeled riboprobes with alkaline phosphatase detection (Linask et al., 2001). Images of whole-mounted chick embryos were taken with a Nikon DS-L2 camera unit. Probes for chick Hex were provided by Parker Antin, University of Arizona and probes for chick Islet-1 (Isl1) were provided by Thomas Jessell, Columbia University, NY.
Chick embryos (HH stages 3+/4) were incubated on agarose albumin supplemented with HCy (50 μM). Instead of giving a single injection in ovo, embryos were exposed to HCy for 8 hours in order to define the effect on early cardiac gene expression. Another group of embryos were exposed to HCy for 24 hours at which time the effects on gene expression were determined. To analyze the effects during the looping stages, incubation was stopped after between 22 and 24 hours. After the 8-hour incubation, Li and HCy suppressed Hex and Isl1 expression in the cardiogenic crescent (FIG. 5).
The inventors next analyzed whether FA rescues the downregulation of Hex and Isl1. Chick embryos were exposed to Li, HCy or Wnt3A, as above, with and without 10 μg/ml of FA; the experiments were terminated after either an 8-hour or 24-hour exposure period, at which time in situ hybridizations for gene expression were performed. After 8 hours of exposure, Li, HCy and Wnt3A all suppressed Hex (FIGS. 9D, G, J) and Isl1 (FIGS. 10D, G, J) compared with the control embryonic expression patterns (FIG. 9A; FIG. 10A). […] Thus, FA supplementation suppressed the potentiation of the inhibitory Wnt signaling, allowing for normal induction of Hex and Isl1 gene expression.

[2] = system: neutral lipid droplets in heart and placenta; experiment: Oil Red O staining of neutral lipid droplets in E15.5 heart and placenta; format: in vivo, mouse; details: for ORO neutral lipid localization in the placenta: labyrinth and maternal decidua
Excerpt: Oil Red O (ORO), a fat soluble dye, was used to detect neutral lipids (triglycerides, diacylglycerols, and cholesterol esters) in cryosectioned E15.5 cardiac and placental tissues. The staining methodology was followed as published. This method estimates tissue lipid content and localization (Mehlem et al., 2013). Lipid droplets stain red and nuclei blue. Polar lipids (phospholipids, sphingolipids and ceramides) are not stained (Fowler and Greenspan, 1985).

[3] = system: Wnt pathway-associated and lipid metabolism genes; experiment: Affymetrix microarray of E15.5 embryonic heart tissue after Li+ or HCys exposure with or without FA; format: in vivo, mouse
Excerpt: The inbred C57B16 mouse strain (Jackson Laboratories, Bar Harbor, Me.) was used throughout this study. It has become recognized that mouse strains can differ in their response to environmental factors (Andrikopoulos et al., 2005; Barnabei et al., 2010; Funkat et al., 2004). Thus, the mouse strain being used should be taken into consideration when comparing different studies. Morning of detection of the vaginal sperm plug was defined as embryonic day (E) 0.5. Timed-pregnant mice were randomly allocated to receive intraperitoneally (i.p.) either a single dose of 100 μl of 6.25 mg/ml of lithium chloride (Li+), as previously determined (Chen et al., 2008), 100 μl of 75 μM HCys (Han et al., 2009), or 100 μl of 0.9% physiological saline (control group). […]
As in the previous studies, animal chow was supplemented with 10.5 mg/kg folic acid (FA), a concentration that has been used in trial human population studies (Czeizel et al., 2013; Han et al., 2009). […] On ED 6.75 (at 5:30 PM) experimental pregnant females received Li+ or HCys by an i.p. injection that the inventors reported induces a high incidence of valve and heart defects as detected by echocardiography at mid-gestation on ED 15.5 (Han et al., 2009).
The inventors analyzed for gene misexpression in the embryonic heart on E15.5 of gestation, i.e., over a week after the acute exposures. […]

[4] = system: Acadm and Acadl gene expression; experiment: RT-PCR of Acadm and Acadl in E7.5 embryos and E15.5 hearts; format: in vivo, mouse; details: for Acadm expression: E15.5 hearts, versus control hearts
Excerpt: The gene expression data were validated by RT-PCR in mouse embryos at both E 7.5 (a half day after exposure) and at E15.5 and by in situ hybridization for tissue localization analyses. The inventors chose E 7.5 to determine early gestational changes in gene expression and to define whether these expression changes were maintained during pregnancy to E 15.5. Digoxigenin labeled probes and alkaline phosphatase secondary antibody detection for in situ hybridization were used (Roche, Inc., Indianapolis, Ind.).

Compound | Hex and Isl1 gene expression with FA supplementation ([1]; embryos exposed to Li, HCy or Wnt3A, FA 10 μg/ml, 8 hours) | heart formation and Hex/Isl1 expression with FA supplementation ([1]; embryos exposed to Li, HCy or Wnt3A, FA 10 μg/ml, 24 hours) | ORO neutral lipid localization in the placenta [2] | changes in lipid metabolism gene expression with high FA supplementation ([3]; Li or HCys exposure, FA 10.5 mg/kg diet) | Acadm expression [4] | Hex and Isl1 expression in the cardiogenic crescent ([1]; 8 hours of exposure, HH stages 3+/4) | Isl1 gene expression ([1]; by 24 hours of Li or HCy exposure) | ORO staining of neutral lipids in the heart [2] | Wnt pathway-associated gene expression ([3]; E15.5 hearts after acute exposure at E6.75) | Acadm/Acadl gene expression ([4]; E7.5, versus control embryos, FA from morning after conception)
Nc1nc2ncc(CNc3ccc(C(=O)N[C@@H](CCC(=O)O)C(=O)O)cc3)nc2c(=O)[nH]1 [FA, folic acid] | normalized gene expression patterns | normal beating hearts had formed | more normal organization of labyrinth | prevented | returned the expression close to control levels |  |  |  |  | 
N[C@H]1CCSC1=O [HCy, L-homocysteine thiolactone hydrochloride] |  |  | patch-like neutral lipid localization |  | upregulation | suppressed | recovered | did not alter ORO staining in the trabeculae | significantly misexpressed | slightly down-regulated
